Assays:
MMP-9 = biological target: T1, MMP-9 (Homo sapiens, UniProt P14780); assay: Assay for inhibitory activities on MMP-9 (fluorogenic MOCAc peptide substrate); assay type: biochemical; settings: MMP-9 purified from human fibrosarcoma HT1080 cells, activated by TPCK-Trypsin
T1 construct: made in house; host or cells: Endogenous secretion by human fibrosarcoma HT1080 cells (ATCC) treated with TPA; purified from the culture medium
From the text: MMP-9 was purified by using a combination of procedures described in the method descrived in Y. Okada et al. (Yasunori Okada, Yukio Gonoji, Katsumi Naka, Katsuro Tomita, Isao Nakanishi, Kazushi Iwata and Taro Hayakawa: Matrix metalloproteinase 9 (92-kDa gelatinase/type IV collagenase) from HT1080 human fibrosarcoma cells. Purification and activation of the precursor and enzymic properties. J. Biol. Chem., 267 (1992) 21712-21719 and the other method (1) Yasunori Okada, Tatsuhisa Morodomi, Jan J, Enghild, Ko Suzuki, Atsushi Yasui, Isao Nakanishi, Guy Salvesen and Hideaki Nagase: Matrix metalloproteinase 2 from human rheumatoid synovial fibroblasts. Purification and activation of the precursor and enzymic properties. Eur. J. Biochem. 194 (1990) 721-730 or (2) Robin V Ward, Rosalind M Hembry, John J Reynolds and Gillian Murphy: The purification of tissue inhibitor of metalloproteinase-2 from its 72 kDa progelatinase complex. Biochem. J. 278 (1991) 179-187. Briefly, human fibrosarcoma ATCC HT1080 cell line was cultured to confluent in Dulbecco's Modified Medium (DMEM) containing 10% fetal-calf serum (FCS) at 37° C. for 48 hours (5%). Further, Confluent Cell was cultured in DMEM removed FCS (2nd). To obtain MMP-9, Phorbol-12-myristate-13-acetate (TPA) was added to this DMEM medium at a concentration of 50 ng/ml. The TPA treated medium was centrifuged at 3000 rpm for 15 min and the supernatant was concentrated to 450 ml by a Toyo-Roshi UP-20 apparatus with an ultrafiltration membrane. Then, this concentrated solution was purified by Gelatin-Sepharose and Concanavalin A-Sepharose. The pool containing MMP-9 was dialyzed, concentrated (Toyo-Roshi UP-20) and applied to columns of Sephacryl S-200 and Green A matrix for the separation from TIMP. The obtained Procollagenase was activated by TPCK-Trypsin (final conc. 3 μg/μl reaction mix.) for the assay.
(§1) The enzymatic activity on each MMP was analyzed by the method described in “C Graham Knight, Frances Willenbrock and Gillian Murphy: A novel coumarin-labelled peptide for sensitive continuous assays of the matrix metalloproteinases: FEBS LETT., 296, (1992), 263-266”. The substrate: MOCAc-Pro-Leu-Gly-Leu-A2Pr(DNP)-Ala-Arg-NH2 was purchased from Peptide Institute, Inc., Osaka, Japan.
(§2) The measurement of the inhibitory activities of a compound (inhibitor) was carried out by the following four methods;
(§3) A) Reaction with substrate, enzyme (MMPs) and inhibitor
(§4) B) Reaction with substrate and inhibitor, without enzyme
(§5) C) Reaction with substrate and enzyme (MMPs), without inhibitor
(§6) D) Reaction with substrate only
(§7) Each fluorescence values of above four methods was measured and % inhibition was calculated by using the following formula.
(§8) % inhibition={1−(A−B)/(C−D)}×100
(§9) IC50 means the concentration required to inhibit 50% of the enzyme activity.

MMP-2 = biological target: T2, MMP-2 (Homo sapiens, UniProt P08253); assay: Assay for inhibitory activities on MMP-2 (fluorogenic MOCAc peptide substrate); assay type: biochemical; settings: MMP-2 purchased from Calbiochem-Novabiochem
T2 construct: purchased Calbiochem-Novabiochem International, Inc
T2 sequence (P08253 110-660): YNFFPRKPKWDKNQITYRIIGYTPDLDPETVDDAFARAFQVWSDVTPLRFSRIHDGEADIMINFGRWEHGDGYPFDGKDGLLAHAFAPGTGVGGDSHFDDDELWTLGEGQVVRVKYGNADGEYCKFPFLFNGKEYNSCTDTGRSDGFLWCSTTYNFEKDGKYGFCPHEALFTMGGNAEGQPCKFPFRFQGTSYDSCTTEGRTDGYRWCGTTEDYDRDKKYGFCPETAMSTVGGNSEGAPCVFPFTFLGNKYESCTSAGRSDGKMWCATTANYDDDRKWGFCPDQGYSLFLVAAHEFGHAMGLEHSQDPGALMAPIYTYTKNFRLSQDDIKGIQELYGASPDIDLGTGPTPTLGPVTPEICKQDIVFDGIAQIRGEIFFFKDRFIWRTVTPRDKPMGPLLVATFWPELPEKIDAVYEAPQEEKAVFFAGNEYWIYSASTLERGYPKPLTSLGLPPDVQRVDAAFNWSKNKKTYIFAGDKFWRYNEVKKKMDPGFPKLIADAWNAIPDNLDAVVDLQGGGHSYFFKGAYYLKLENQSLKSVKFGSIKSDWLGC
Experimental: MMP-2 was purchased from Calbiochem-Novabiochem International, Inc.
as §1, §2, §3, §4, §5, §6, §7, §8, §9

T1 sequence (P14780 107-707 limits assumed): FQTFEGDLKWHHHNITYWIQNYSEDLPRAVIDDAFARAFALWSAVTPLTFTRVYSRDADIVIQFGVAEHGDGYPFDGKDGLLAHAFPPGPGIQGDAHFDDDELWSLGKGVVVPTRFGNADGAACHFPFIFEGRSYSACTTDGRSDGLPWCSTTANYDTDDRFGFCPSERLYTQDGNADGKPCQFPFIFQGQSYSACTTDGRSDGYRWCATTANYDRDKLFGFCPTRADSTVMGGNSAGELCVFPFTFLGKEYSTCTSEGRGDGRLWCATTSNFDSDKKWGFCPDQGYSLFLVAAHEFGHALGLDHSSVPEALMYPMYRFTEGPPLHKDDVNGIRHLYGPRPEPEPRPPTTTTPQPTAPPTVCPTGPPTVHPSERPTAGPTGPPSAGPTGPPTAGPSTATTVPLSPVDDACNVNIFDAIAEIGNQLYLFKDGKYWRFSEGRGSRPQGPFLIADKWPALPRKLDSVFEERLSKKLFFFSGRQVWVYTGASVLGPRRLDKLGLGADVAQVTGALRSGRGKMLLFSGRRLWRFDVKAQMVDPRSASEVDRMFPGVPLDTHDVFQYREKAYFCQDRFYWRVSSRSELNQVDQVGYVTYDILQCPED

Structure (SMILES) | IC50 (MMP-9) | IC50 (MMP-2) | melting point
Cc1ccc(C#Cc2ccc(S(=O)(=O)N[C@H](Cc3c[nH]c4ccc(O)cc34)C(=O)O)s2)cc1 [Compound A-1] | 2.44 nM | 0.223 nM | 200 to 202 °C (dec.)
O=C(O)[C@H](Cc1c[nH]c2ccc(F)cc12)NS(=O)(=O)c1ccc(-c2ccc(N3CCCC3)cc2)s1 [Compound A-10] | 12 nM | 4.04 nM | –
Cc1ccc(C#Cc2ccc(S(=O)(=O)N[C@H](Cc3c[nH]c4c(O)cccc34)C(=O)O)s2)cc1 [Compound A-5] | 6.49 nM | 1.21 nM | –
COc1cccc2[nH]cc(C[C@@H](NS(=O)(=O)c3ccc(C#Cc4ccc(C)cc4)s3)C(=O)O)c12 [Compound A-3] | 174 nM | 22.8 nM | –
Cc1ccc(C#Cc2ccc(S(=O)(=O)N[C@@H](Cc3c[nH]c4ccc(F)cc34)C(=O)O)s2)cc1 [Compound A-6] | 848 nM | 90.8 nM | –
Cc1ccc(C#Cc2ccc(S(=O)(=O)N[C@H](Cc3c[nH]c4cccc(O)c34)C(=O)O)s2)cc1 [Compound A-4] | 24.3 nM | 0.768 nM | –

Other lines, results leading:

IC50 (MMP-9) | IC50 (MMP-2) | melting point | Structure (SMILES)
16 nM | 5.77 nM | – | COc1ccc(-n2nnc(-c3ccc(S(=O)(=O)N[C@H](Cc4c[nH]c5ccc(OC)cc45)C(=O)O)cc3)n2)cc1 [Compound A-11]
6.66 nM | 0.617 nM | – | COc1ccc2[nH]cc(C[C@@H](NS(=O)(=O)c3ccc(-c4ccc(N(C)C)cc4)s3)C(=O)O)c2c1 [Compound A-8]
1420 nM | 85.8 nM | – | O=C(O)[C@H](Cc1c[nH]c2ccc(F)cc12)NS(=O)(=O)c1ccc(-c2nnn(-c3ccccc3)n2)cc1 [Compound A-12]
15.6 nM | 10.6 nM | – | COc1ccc2[nH]cc(C[C@@H](NS(=O)(=O)c3ccc(C#Cc4ccc(C)cc4)s3)C(=O)O)c2c1 [Compound A-2]
0.534 nM | 0.137 nM | – | O=C(O)[C@@H](Cc1c[nH]c2ccc(F)cc12)NS(=O)(=O)c1ccc(-c2ccc(N3CCCC3)cc2)s1 [Compound A-9]

— US6727266B2, “Substituted tryptophan derivatives” (Shionogi & Co., Ltd., priority 2000, dated 2004)
